According to the supplement of paper PMC10307832:

Columns and labels:
[1] = compound: COC1=CC=C(C=C1)CN2C=CC3=C2C=C(C=C3)C(=O)NO + NC(=O)Nc1cc(-c2cccc(F)c2)sc1C(=O)N[C@H]1CCCNC1 [AZD7762] (partner 0.2 µM); assay: relative viability (nuclei count vs DMSO), 5 days (fraction); higher = more cells survive
Procedure, shortened: (§1)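 A single step with final 0.05% Triton X-100, 1% formaldehyde and 1 ug/ml Hoechst fixed the cells and stained nuclei 5 days after treatment. Lung cancer cell lines in 1536-well plates had been treated by pin tool the day after seeding with one drug alone or a fixed anchor-drug dose plus five library-drug doses (not always all listed) in √10 steps, and nuclei were counted on 4× images. Relative viability is the ratio of nuclei in treated wells to nuclei in vehicle wells, taken as the median of duplicate plates.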

[2] = compound: COC1=CC=C(C=C1)CN2C=CC3=C2C=C(C=C3)C(=O)NO + O=C(CCCCCCC(=O)Nc1ccccc1)NO [Vorinostat] (partner 1 µM); assay: as above
Procedure, shortened: as §1

| Cell Line | relative viability ([1]; first compound 0.08 µM) | relative viability ([1]; first compound 0.253 µM) | relative viability ([1]; first compound 0.8 µM) | relative viability ([1]; first compound 2.53 µM) | relative viability ([1]; first compound 8 µM) | relative viability ([2]; first compound 0.08 µM) | relative viability ([2]; first compound 0.253 µM) | relative viability ([2]; first compound 0.8 µM) | relative viability ([2]; first compound 2.53 µM) | relative viability ([2]; first compound 8 µM) |
| --- | --- | --- | --- | --- | --- | --- | --- | --- | --- | --- |
| 201T | 0.561 | 0.676 | 0.528 | 0.642 | 0.586 | 0.813 | 0.952 | 0.967 | 0.986 | 0.868 |
| A-427 | 0.544 |  | 0.671 | 0.696 | 0.476 | 0.694 |  | 0.826 | 0.847 | 0.794 |
| ABC-1 |  | 0.692 | 0.871 | 0.796 | 0.756 |  | 0.517 | 1.13 | 0.973 | 1.02 |
| BEN | 0.628 | 0.507 | 0.628 | 0.594 | 0.549 | 0.566 | 0.566 | 0.591 | 0.543 | 0.548 |
| CAL-12T | 0.572 | 0.537 | 0.647 | 0.675 | 0.589 | 0.562 | 0.855 | 0.821 | 0.719 | 0.787 |
| COR-L23 |  |  |  |  |  | 0.273 | 0.456 | 0.455 | 0.518 | 0.502 |
| COR-L 105 |  |  |  |  |  | 0.489 | 0.802 | 0.828 | 0.815 | 0.63 |
| ChaGo-K-1 |  | 0.861 | 0.881 | 0.766 | 0.762 |  | 0.837 | 0.772 | 0.706 | 0.558 |
| EKVX |  | 0.637 | 0.699 | 0.803 | 0.712 | 0.646 | 0.843 | 0.803 | 0.897 | 0.672 |
| EMC-BAC-2 | 0.878 |  | 1.22 | 1.11 | 1 | 0.257 |  | 0.568 | 0.429 | 0.36 |
| EPLC-272H |  | 0.253 | 0.196 | 0.229 | 0.185 |  | 0.619 | 0.55 | 0.404 | 0.3 |
| H3255 | 0.925 | 0.774 | 0.831 | 0.843 | 0.744 | 0.34 | 0.739 | 0.842 | 0.849 | 0.731 |
| HARA |  | 0.588 | 0.397 | 0.251 | 0.202 |  | 0.6 | 0.484 | 0.677 | 0.59 |
| HCC-15 | 1.3 | 1.19 | 1.23 | 1.58 | 1.1 | 0.544 | 0.951 | 0.828 | 0.926 | 0.754 |
| HCC-44 | 0.938 | 1.01 | 0.99 | 1.01 | 1.04 | 1.09 | 1.06 | 1.18 | 1.14 | 1.12 |
| HCC-78 | 0.575 | 1.21 | 0.589 | 0.512 | 0.496 | 0.403 | 0.484 | 0.431 | 0.523 | 0.411 |
| HCC-366 | 0.239 | 0.265 | 0.302 | 0.235 | 0.203 | 0.107 | 0.303 | 0.385 | 0.407 | 0.223 |
| HCC-827 | 0.228 | 0.259 | 0.159 | 0.218 | 0.196 | 0.592 | 0.897 | 0.799 | 0.799 | 0.788 |
| HOP-62 | 0.358 | 0.691 | 0.72 | 0.554 | 0.484 | 0.39 | 0.666 | 0.528 | 0.748 | 0.531 |

| Cell Line | relative viability ([1]; first compound 0.08 µM) | relative viability ([1]; first compound 0.253 µM) | relative viability ([1]; first compound 0.8 µM) | relative viability ([1]; first compound 2.53 µM) | relative viability ([1]; first compound 8 µM) | relative viability ([2]; first compound 0.08 µM) | relative viability ([2]; first compound 0.253 µM) | relative viability ([2]; first compound 0.8 µM) | relative viability ([2]; first compound 2.53 µM) | relative viability ([2]; first compound 8 µM) |
| --- | --- | --- | --- | --- | --- | --- | --- | --- | --- | --- |
| IA-LM |  |  |  |  |  | 0.801 |  | 0.971 | 1.05 | 0.961 |
| LC-2-ad | 0.905 | 0.874 | 0.865 | 0.898 | 0.835 | 0.58 | 0.742 | 0.748 | 0.701 | 0.592 |
| LCLC-97TM1 |  | 0.267 | 0.205 | 0.162 | 0.188 |  | 0.659 | 0.772 | 0.557 | 0.438 |
| LCLC-103H | 0.764 | 0.851 | 0.809 | 0.851 | 0.679 | 0.647 | 0.832 | 0.868 | 0.748 | 0.613 |
| LK-2 |  | 0.439 | 0.45 | 0.352 | 0.375 | 0.172 | 0.291 | 0.282 | 0.308 | 0.221 |
| LOU-NH91 |  | 0.749 | 0.756 | 0.748 | 0.705 |  | 0.953 | 0.906 | 0.963 | 0.884 |
| LU99A |  | 0.392 | 0.384 | 0.276 | 0.208 |  | 0.504 | 0.581 | 0.418 | 0.352 |
| LXF-289 |  | 1.06 | 1.04 | 1.07 | 1.02 |  | 0.815 | 0.813 | 0.797 | 0.668 |
| NCI-H23 | 0.257 | 0.312 | 0.32 | 0.271 | 0.154 | 0.338 | 0.649 | 0.637 | 0.584 | 0.461 |
| NCI-H322M |  |  | 0.579 | 0.668 | 0.491 |  |  | 0.866 | 0.888 | 0.845 |
| NCI-H358 |  | 0.54 | 0.443 | 0.557 | 0.354 |  | 0.721 | 0.703 | 0.606 | 0.528 |
| NCI-H441 | 1.08 | 1.3 | 1.19 | 1.2 | 0.887 | 0.74 | 0.888 | 0.902 | 0.844 | 0.637 |
| NCI-H460 | 0.536 | 0.485 | 0.588 | 0.614 | 0.515 | 0.508 | 0.736 | 0.758 | 0.783 | 0.57 |
| NCI-H520 |  |  |  |  |  | 0.601 | 0.775 | 0.682 | 0.664 | 0.712 |
| NCI-H522 |  | 0.792 | 1.06 | 0.951 | 0.612 |  | 0.982 | 1.03 | 0.909 | 0.845 |
| NCI-H596 | 1.12 | 1.18 | 1.07 | 1.19 | 0.937 | 0.587 | 0.536 | 0.589 | 0.708 | 0.778 |
| NCI-H647 |  | 0.437 | 0.495 | 0.361 | 0.369 | 0.457 | 0.738 | 0.802 | 0.702 | 0.515 |
| NCI-H650 | 0.944 | 0.686 | 0.816 | 1.1 | 0.763 | 0.337 | 0.414 | 0.437 | 0.477 | 0.34 |
